The record followed here is ChEMBL document CHEMBL5465560, “Selectivity Literature for EUbOPEN Chemogenomic Library” (2024).

For assay [1], the target named is Serine/threonine-protein kinase N1 (Homo sapiens, UniProt Q16512). Description: Selectivity interaction (Kinase panel (Z-LYTE Assay)) EUB0001632a PKN1. The following applies: at 10 µM.
The target of assay [2] is Cyclin-dependent kinase 2 (Homo sapiens, UniProt P24941). Kind of assay: Selectivity interaction (Kinase panel (KiNativ target engagement assay in Jurkat cells)) EUB0001635a CDK2. Format: cell-based. The note with it: at 1 µM.
Assay [3] concerns the target T1, Aurora kinase C (Homo sapiens) (UniProt Q9UQB9).
T1 sequence (whole entry): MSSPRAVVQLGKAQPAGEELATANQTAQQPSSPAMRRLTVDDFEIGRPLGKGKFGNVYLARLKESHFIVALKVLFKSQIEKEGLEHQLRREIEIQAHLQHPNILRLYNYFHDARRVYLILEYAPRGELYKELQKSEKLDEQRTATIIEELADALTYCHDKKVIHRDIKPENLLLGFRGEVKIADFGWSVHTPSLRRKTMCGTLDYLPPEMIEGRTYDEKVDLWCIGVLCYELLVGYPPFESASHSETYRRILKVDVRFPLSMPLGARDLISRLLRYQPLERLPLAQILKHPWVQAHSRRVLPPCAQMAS
Description: Selectivity interaction (KinomeScan (DiscoverX)) EUB0000607a AURKC. The following applies: at 10 µM.

Assay [4] concerns the target Casein kinase I isoform gamma-3 (Homo sapiens) (UniProt Q9Y6M4). Description: Selectivity interaction (KinomeScan (DiscoverX)) EUB0000666a CSNK1G3. The following applies: at 10 µM.
Assay [5] addresses T2, Ephrin type-A receptor 6 (Homo sapiens) (UniProt Q9UF33).
T2 sequence (whole entry): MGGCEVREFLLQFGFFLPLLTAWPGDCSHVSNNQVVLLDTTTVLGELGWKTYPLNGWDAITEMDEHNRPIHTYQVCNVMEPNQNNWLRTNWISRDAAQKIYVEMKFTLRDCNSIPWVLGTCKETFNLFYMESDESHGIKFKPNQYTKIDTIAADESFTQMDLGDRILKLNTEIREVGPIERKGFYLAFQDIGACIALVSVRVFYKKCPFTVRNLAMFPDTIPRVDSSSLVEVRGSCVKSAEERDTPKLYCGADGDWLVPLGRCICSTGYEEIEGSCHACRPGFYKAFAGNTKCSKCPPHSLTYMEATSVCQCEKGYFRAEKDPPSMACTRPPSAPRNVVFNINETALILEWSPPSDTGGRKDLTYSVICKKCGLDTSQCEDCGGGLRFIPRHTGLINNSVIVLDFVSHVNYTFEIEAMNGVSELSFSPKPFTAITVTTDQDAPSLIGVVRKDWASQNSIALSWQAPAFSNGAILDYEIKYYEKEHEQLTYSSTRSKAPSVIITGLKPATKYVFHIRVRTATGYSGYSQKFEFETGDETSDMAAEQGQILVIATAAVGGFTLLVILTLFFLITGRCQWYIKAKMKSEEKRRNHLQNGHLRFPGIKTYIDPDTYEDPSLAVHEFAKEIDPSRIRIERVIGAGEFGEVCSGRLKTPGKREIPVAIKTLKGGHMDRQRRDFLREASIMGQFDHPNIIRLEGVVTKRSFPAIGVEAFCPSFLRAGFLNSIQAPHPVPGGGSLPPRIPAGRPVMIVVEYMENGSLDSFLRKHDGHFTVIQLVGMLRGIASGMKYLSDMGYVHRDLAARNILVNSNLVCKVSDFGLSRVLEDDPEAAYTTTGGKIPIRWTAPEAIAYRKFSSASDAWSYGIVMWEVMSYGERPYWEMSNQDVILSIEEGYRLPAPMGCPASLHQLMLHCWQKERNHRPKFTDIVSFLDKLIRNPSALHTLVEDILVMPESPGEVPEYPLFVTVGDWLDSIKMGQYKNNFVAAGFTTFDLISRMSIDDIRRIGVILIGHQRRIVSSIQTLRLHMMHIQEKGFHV
Kind of assay: Selectivity interaction (KinomeScan (DiscoverX)) EUB0000229b EPHA6. The following applies: at 10 µM.

The target of the next assay is Misshapen-like kinase 1 (Homo sapiens, UniProt Q8N4C8). Description: Selectivity interaction (ProQinase) EUB0000171b MINK1.
Misshapen-like kinase 1, sequence (Q8N4C8 whole entry, looked up): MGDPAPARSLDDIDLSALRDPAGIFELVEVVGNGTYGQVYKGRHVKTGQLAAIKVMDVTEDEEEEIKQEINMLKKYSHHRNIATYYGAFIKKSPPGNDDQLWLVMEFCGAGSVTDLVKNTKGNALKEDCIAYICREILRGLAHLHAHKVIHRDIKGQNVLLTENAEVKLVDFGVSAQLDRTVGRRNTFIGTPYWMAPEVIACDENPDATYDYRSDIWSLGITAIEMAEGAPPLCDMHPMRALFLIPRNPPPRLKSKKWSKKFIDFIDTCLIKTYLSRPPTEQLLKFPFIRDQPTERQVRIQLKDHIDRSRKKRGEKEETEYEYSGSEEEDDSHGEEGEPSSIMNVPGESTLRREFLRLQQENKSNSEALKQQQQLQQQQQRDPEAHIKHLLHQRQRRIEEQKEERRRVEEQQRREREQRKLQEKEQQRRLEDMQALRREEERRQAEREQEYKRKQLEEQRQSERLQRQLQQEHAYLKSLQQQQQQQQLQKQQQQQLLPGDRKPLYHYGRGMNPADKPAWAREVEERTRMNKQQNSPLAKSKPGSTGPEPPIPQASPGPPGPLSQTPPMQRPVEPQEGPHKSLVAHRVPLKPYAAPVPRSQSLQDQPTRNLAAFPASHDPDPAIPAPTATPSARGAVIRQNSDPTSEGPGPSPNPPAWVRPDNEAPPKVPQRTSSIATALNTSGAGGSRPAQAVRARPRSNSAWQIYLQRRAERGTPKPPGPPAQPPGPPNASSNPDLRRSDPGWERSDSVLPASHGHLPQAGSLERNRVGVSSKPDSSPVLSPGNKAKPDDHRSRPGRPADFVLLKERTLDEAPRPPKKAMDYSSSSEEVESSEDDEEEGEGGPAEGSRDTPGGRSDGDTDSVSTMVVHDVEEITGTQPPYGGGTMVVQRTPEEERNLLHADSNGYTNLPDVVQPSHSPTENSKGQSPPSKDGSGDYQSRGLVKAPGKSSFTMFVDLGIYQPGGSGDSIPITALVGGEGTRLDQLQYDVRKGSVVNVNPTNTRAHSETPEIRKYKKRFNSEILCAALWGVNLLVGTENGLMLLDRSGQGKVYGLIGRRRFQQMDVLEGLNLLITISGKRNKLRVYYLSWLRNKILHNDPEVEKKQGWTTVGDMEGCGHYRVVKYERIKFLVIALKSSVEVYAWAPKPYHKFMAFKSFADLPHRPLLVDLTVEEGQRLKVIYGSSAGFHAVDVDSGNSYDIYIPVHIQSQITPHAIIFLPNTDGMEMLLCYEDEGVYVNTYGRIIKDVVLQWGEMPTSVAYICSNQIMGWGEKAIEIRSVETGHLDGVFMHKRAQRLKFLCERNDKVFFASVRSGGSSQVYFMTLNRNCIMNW
Assay [6] addresses T3, Mitogen-activated protein kinase kinase kinase kinase 2 (Homo sapiens) (UniProt Q12851).
T3 sequence (whole entry): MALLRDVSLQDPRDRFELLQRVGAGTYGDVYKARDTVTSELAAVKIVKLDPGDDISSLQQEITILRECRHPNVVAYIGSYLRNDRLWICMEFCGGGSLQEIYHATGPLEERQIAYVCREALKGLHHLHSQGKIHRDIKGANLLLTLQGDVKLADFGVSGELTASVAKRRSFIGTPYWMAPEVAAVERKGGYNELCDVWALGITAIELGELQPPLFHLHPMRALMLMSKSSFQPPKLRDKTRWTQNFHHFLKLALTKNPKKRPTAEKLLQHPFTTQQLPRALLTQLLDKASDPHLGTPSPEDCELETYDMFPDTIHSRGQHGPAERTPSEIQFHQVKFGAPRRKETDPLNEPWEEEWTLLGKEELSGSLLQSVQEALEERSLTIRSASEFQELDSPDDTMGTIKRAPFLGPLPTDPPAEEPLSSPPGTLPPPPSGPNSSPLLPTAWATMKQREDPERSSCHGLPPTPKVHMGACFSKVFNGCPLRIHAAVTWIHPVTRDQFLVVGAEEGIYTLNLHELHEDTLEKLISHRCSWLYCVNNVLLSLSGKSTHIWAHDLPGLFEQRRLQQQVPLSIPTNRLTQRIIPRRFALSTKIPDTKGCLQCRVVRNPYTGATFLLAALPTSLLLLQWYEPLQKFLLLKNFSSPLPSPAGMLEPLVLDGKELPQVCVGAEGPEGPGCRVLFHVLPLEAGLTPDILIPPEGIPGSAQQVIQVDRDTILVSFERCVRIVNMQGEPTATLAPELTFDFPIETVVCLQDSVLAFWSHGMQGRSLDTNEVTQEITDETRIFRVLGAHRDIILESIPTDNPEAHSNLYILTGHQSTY
Description: Selectivity interaction (KinomeScan (DiscoverX)) EUB0000092b MAP4K2. The note with it: at 10 µM.

Assay [7] addresses Ephrin type-A receptor 5 (Homo sapiens) (UniProt P54756). Kind of assay: Selectivity interaction (Kinase panel (DSF assay)) EUB0001559a EPHA5. On the technique in general: DSF heats the sample and reads unfolding from a dye or from intrinsic fluorescence.

Casein kinase I isoform gamma-3 (Homo sapiens), sequence (Q9Y6M4 whole entry, looked up, canonical isoform): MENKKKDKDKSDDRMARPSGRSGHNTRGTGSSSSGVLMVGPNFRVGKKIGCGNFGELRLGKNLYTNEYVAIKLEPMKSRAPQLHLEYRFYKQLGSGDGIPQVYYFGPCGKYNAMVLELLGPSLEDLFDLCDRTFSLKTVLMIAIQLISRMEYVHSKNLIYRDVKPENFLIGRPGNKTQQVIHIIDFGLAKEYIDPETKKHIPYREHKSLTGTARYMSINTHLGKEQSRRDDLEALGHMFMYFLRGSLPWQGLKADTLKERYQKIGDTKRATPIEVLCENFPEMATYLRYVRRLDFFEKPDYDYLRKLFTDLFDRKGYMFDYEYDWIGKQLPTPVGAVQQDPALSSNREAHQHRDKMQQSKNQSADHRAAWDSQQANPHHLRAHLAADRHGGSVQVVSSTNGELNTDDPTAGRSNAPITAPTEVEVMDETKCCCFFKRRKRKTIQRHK
Serine/threonine-protein kinase N1, sequence (Q16512 2-942 limits assumed): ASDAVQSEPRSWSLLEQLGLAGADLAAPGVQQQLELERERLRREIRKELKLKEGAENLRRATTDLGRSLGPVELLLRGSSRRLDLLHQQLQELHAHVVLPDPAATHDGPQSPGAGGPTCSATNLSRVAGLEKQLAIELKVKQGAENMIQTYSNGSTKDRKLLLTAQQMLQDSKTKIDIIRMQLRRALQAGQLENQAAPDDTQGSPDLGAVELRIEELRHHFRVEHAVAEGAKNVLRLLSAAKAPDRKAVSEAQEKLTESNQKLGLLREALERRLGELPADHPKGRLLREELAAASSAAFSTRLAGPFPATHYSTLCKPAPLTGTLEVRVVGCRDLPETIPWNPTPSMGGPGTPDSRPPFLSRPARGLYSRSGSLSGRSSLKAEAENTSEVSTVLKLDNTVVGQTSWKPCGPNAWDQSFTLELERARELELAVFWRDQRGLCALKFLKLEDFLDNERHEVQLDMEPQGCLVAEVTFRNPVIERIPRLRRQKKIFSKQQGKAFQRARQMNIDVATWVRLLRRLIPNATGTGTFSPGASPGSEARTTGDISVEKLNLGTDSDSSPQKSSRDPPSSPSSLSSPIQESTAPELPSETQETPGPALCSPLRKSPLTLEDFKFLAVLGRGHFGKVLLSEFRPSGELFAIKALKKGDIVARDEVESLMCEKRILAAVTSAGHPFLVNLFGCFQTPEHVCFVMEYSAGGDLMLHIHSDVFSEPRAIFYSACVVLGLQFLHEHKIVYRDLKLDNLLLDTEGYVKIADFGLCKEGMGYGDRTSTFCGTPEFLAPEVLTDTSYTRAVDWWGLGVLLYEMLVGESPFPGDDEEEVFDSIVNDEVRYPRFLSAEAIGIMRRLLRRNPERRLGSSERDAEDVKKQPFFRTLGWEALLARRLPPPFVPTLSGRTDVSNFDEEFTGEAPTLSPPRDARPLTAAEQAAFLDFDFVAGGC
Ephrin type-A receptor 5 (Homo sapiens), sequence (P54756 whole entry): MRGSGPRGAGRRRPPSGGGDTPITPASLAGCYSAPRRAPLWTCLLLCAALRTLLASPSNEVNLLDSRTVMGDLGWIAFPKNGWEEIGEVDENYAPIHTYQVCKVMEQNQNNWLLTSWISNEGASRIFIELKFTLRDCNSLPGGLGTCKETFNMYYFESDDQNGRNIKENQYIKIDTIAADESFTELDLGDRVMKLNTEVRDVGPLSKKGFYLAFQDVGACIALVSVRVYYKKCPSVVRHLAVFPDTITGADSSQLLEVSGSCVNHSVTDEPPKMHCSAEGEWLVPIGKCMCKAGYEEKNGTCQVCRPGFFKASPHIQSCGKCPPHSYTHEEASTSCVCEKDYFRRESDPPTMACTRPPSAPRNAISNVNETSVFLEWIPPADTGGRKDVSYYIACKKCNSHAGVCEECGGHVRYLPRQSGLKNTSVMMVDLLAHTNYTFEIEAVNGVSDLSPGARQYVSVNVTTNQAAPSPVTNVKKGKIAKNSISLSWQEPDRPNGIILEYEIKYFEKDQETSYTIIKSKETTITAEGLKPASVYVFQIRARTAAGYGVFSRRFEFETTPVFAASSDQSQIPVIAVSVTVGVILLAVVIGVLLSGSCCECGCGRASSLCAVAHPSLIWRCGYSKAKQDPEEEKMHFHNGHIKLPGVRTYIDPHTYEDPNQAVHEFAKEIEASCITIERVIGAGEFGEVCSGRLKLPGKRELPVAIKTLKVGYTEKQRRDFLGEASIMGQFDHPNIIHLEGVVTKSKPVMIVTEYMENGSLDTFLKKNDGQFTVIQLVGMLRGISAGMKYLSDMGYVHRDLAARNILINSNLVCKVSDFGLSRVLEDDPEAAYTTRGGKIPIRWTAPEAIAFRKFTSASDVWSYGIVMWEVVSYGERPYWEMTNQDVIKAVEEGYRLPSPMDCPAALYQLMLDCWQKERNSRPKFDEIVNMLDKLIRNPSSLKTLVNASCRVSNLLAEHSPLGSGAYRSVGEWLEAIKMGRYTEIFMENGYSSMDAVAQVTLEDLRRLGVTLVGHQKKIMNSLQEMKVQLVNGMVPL

Turning to `Cn1cc(-n2cnc3c(NCc4nc5cc(Cl)c(Cl)cc5[nH]4)nc(N4CCOCC4)nc32)cn1`, the % of control in assay [1] was -4.72%. `C=CC(=O)Nc1ccc(C(=O)Nc2[nH]nc3c2CN(C(=O)N[C@H](CN(C)C)c2ccccc2)C3(C)C)cc1`: the % of engagement in assay [2] (Selectivity number of off-targets 0.0, Selectivity number of targets 233.0, Source Knowledge https://www.sciencedirect.com/science/article/pii/S2451945619300674?via%3Dihub) is -25.3%; in assay [2] it was -16.4%. Consider `CNC(=O)Nc1ccc(-c2nc(N3CC4CCC(C3)O4)c3cnn(C4CCC5(CC4)OCCO5)c3n2)cc1`, for which the % of control in assay [3] was found to be 86%. Turning to `O=C(NOC[C@H](O)CO)c1ccc(F)c(F)c1Nc1ccc(I)cc1F`, the % of control in assay [4] was found to be 67%.

The compound `COc1cc(N(C)c2ccnc3ccc(C(F)(F)F)cc23)cc(OC)c1OC` returned a % binding in assay [5] of 97%. Consider `C=CC(=O)Nc1cccc(C(=O)Nc2ccc(Nc3cc(-c4[nH]c(SC)nc4C)ccn3)cc2)c1`, for which the % of control came to 75% at Misshapen-like kinase 1 (at 1 µM) and 44% on Misshapen-like kinase 1 (at 5 µM). On to `CCC(=O)N1CCN(c2ccc(-n3c(=O)ccc4cnc5ccc(-c6cnc7ccccc7c6)cc5c43)cc2C(F)(F)F)CC1`, for which, in assay [6], the % of control is 35%. `CN(C(=O)c1cnn2cccnc12)c1cc2c(cc1N1CCOCC1)C(=O)N(C[C@@H](F)C(C)(C)O)C2` registered a dTM in assay [7] of -0.3 K.
